# Assay results published in PubChem BioAssay AID2060332 (Molecular Pharmacology Branch, DTP, NCI, 2025).
# Values joined by “and” are separate entries in the source; they are usually repeats but may differ in a detail not shown here. Equal values may be shown once.
# System: LG0567-F671-PDC multi-cell spheroid viability
# Test: Anticancer human tumor LG0567-F671-PDC patient-derived lung adenocarcinoma cell line growth inhibition [IpAb]
# Settings: for viability, T/C: stronger effect = lower value
# From the text: Combinatorial screen of targeted agents with ipatasertib and abemaciclib in multi-cell type tumor spheroids
# A high-throughput screen of multi-cell type tumor spheroids was designed to identify active combinations of targeted small molecules and ipatasertib or abemaciclib. Complex spheroids include a stromal component modeled by human endothelial cells (HUVEC) and fibroblasts modeled by human mesenchymal stem cells (MSCs). The concentration ranges selected for each drug and investigational agent were based upon clinically achievable concentrations if the clinical Cmax of the agent was known.
# Compounds. The drugs and investigational agents: ipatasertib (NSC767898), abemaciclib(NSC768073), selumetinib (NSC741078), trametinib (758246), adavosertib (NSC754352), everolimus (NSC733504), sapanisertib (NSC764658), vemurafenib (NSC761431), venetoclax (NSC766270), copanlisib (NSC809693), apelisib (NSC765974), palbociblib (NSC758247), vemurafenib (NSC761431), dabrafenib (NSC764134), ravoxertinib (NSC781343), BMS-387032 (NSC767048), sotorasib (NSC818433), talazoparib (NSC767125) and afursertib (NSC778305), were obtained from the National Cancer Institute (NCI) Developmental Therapeutics Program Chemical Repository. The FDA-approved anticancer drug set is available from the NCI Developmental Therapeutics Program. […] The stock solutions were prepared in dimethyl sulfoxide (DMSO, Sigma-Aldrich, St. Louis, MO, cat. D2650) at 800-fold the tested concentration and stored at -70 degrees C prior to their use. All drugs and investigational agents were tested over a range starting from a high concentration at or near the clinical Cmax and decreasing in half-log increments. If the clinical Cmax for an agent had not been determined, the highest concentration tested was 10 microM.
# NCI60 Cell Culture. NCI60 cell lines were obtained from the NCI Developmental Therapeutics Program Tumor Repository. For each lot of cells, the Repository performed Applied Biosystems AmpFLSTR Identifiler testing with PCR amplification to confirm consistency with the published Identifier STR profile for each cell line. Cells were kept in continuous culture for no more than 20 passages. The optimal seeding densities for each of the cell lines at each time point assessed were determined prior to performing the concentration response studies. Briefly, the NCI60 human tumor lines were grown as monolayers in RPMI 1640 medium supplemented with 10% FBS and 2 mmol/L L-glutamine.
# An additional 9 lines were from the NCI60 cell line panel including MDA-MB-231 breast carcinoma, MDA-MB-468 breast carcinoma, MCF7 breast carcinoma, Hs578T breast carcinoma, MALME-3M melanoma, SK-MEL-2 melanoma, SK-OV-3 ovarian carcinoma, DU-145 prostate carcinoma, PC-3 prostate carcinoma, all cell lines along with major genetic alterations are listed on Table 2. Pooled donor human umbilical vein endothelial cells (HUVEC, Lonza, cat. CC-2519) and human mesenchymal stem cells (hMSC, Lonza, cat. PT-2501) were purchased from Lonza (Walkersville, MD).
# PDMR cell lines were grown in complete medium (DC medium): Dulbecco's modified Eagle's medium (DMEM)/F12 supplemented with 5% fetal bovine serum (FBS), 2 mM L-glutamine, 100 U/mL penicillin and 100 µg/ml streptomycin, 0.4 µg/ml hydrocortisone, 10 ng/ml epidermal growth factor (EGF) recombinant human protein, 24 µg/mL adenine, and 0.1 mg/mL primocin. During culture from frozen stock vials, PDMR cells were cultured in the same medium containing 10 µM Y-27632 (see Table 3). The PDCs were cultured in complete DMEM/F12 media without 10 microM Y-27632 dihydrochloride for at least two passages prior to the screen. The pooled donor HUVEC and hMSC were cultured in endothelial cell growth medium 2 (PromoCell, Heidelberg, Germany, cat. C-22011) and mesenchymal stem cell growth medium 2 (PromoCell, cat. C-28009), respectively. For all experiments, HUVEC and hMSC were used at passages </=5.
# […]
# 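Also: viability read after 7 days of drug exposure.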
# 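For viability, T/C in this document: 100% = DMSO vehicle control luminescence.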
compound,measurement,setting,value
Cn1cnc2c(F)c(Nc3ccc(Br)cc3Cl)c(C(=O)NOCCO)cc21,"viability, T/C",compound 0.00949 µM,54.7% and 48.5%
same,"viability, T/C",compound 0.03 µM,33% and 42.6%
same,"viability, T/C",compound 0.0949 µM,27.1% and 34.2%
same,"viability, T/C",compound 0.3 µM,25.2% and 24.2%
same,"viability, T/C",compound 0.949 µM,18.1% and 21.6%
same,"viability, T/C",compound 3 µM,16.5% and 16%
same,IC50,curve of compound,11.9 nM and < 9.49 nM
Cn1ncc(Cl)c1-c1cc(C(=O)NC(CN)Cc2cccc(F)c2)sc1Cl (stereo not drawn),"viability, T/C",compound 0.0316 µM,111% and 97.3%
same,"viability, T/C",compound 0.1 µM,93% and 66%
same,"viability, T/C",compound 0.316 µM,52.6% and 62.1%
same,"viability, T/C",compound 1 µM,82.9% and 63%
same,"viability, T/C",compound 3.16 µM,53% and 45.6%
same,"viability, T/C",compound 10 µM,0.27% and 0.21%
same,IC50,curve of compound,2470 nM and 1660 nM
Cn1nccc1Nc1nccc(-c2ccn(C(CO)c3ccc(Cl)c(F)c3)c(=O)c2)n1 (stereo not drawn),"viability, T/C",compound 0.0316 µM,96.4% and 76.2%
same,"viability, T/C",compound 0.1 µM,50.8% and 58.4%
same,"viability, T/C",compound 0.316 µM,45% and 40.1%
same,"viability, T/C",compound 1 µM,41.1% and 29.3%
same,"viability, T/C",compound 3.16 µM,33.5% and 35.7%
same,"viability, T/C",compound 10 µM,36.3% and 34.5%
same,IC50,curve of compound,138 nM and 166 nM
Cn1ncnc1[C@H]1c2n[nH]c(=O)c3cc(F)cc(c23)N[C@@H]1c1ccc(F)cc1,"viability, T/C",compound 0.000316 µM,113% and 103%
same,"viability, T/C",compound 0.001 µM,89.9% and 84.2%
same,"viability, T/C",compound 0.00316 µM,96.3% and 81.5%
same,"viability, T/C",compound 0.01 µM,69.8% and 66%
same,"viability, T/C",compound 0.0316 µM,42.7% and 73.8%
same,"viability, T/C",compound 0.1 µM,65.2% and 30.4%
same,IC50,curve of compound,> 100 nM and 49.1 nM
Cn1cnc2c(F)c(Nc3ccc(Br)cc3Cl)c(C(=O)NOCCO)cc21 + CC(C)NCC(C(=O)N1CCN(c2ncnc3c2C(C)CC3O)CC1)c1ccc(Cl)cc1,IC50,"curve of first compound, second compound 0.1 µM",15.7 nM
same,IC50,"curve of first compound, second compound 0.316 µM",< 9.49 nM
same,IC50,"curve of first compound, second compound 1 µM",< 9.49 nM
same,IC50,"curve of first compound, second compound 3.16 µM",< 9.49 nM
same,IC50,"curve of first compound, second compound 10 µM",< 9.49 nM
same,"viability, T/C","second compound 0.1 µM, first compound 0.00949 µM",59.6%
same,"viability, T/C","second compound 0.1 µM, first compound 0.03 µM",36.4%
same,"viability, T/C","second compound 0.1 µM, first compound 0.0949 µM",29.3%
same,"viability, T/C","second compound 0.1 µM, first compound 0.3 µM",18.2%
same,"viability, T/C","second compound 0.1 µM, first compound 0.949 µM",18.6%
same,"viability, T/C","second compound 0.1 µM, first compound 3 µM",11.1%
same,"viability, T/C","second compound 0.316 µM, first compound 0.00949 µM",43.4%
same,"viability, T/C","second compound 0.316 µM, first compound 0.03 µM",32.4%
same,"viability, T/C","second compound 0.316 µM, first compound 0.0949 µM",23.2%
same,"viability, T/C","second compound 0.316 µM, first compound 0.3 µM",18%
same,"viability, T/C","second compound 0.316 µM, first compound 0.949 µM",14.3%
same,"viability, T/C","second compound 0.316 µM, first compound 3 µM",5.52%
same,"viability, T/C","second compound 1 µM, first compound 0.00949 µM",34.6%
same,"viability, T/C","second compound 1 µM, first compound 0.03 µM",32.3%
same,"viability, T/C","second compound 1 µM, first compound 0.0949 µM",23.9%
same,"viability, T/C","second compound 1 µM, first compound 0.3 µM",21.3%
same,"viability, T/C","second compound 1 µM, first compound 0.949 µM",10.7%
same,"viability, T/C","second compound 1 µM, first compound 3 µM",8.24%
same,"viability, T/C","second compound 3.16 µM, first compound 0.00949 µM",44.9%
same,"viability, T/C","second compound 3.16 µM, first compound 0.03 µM",43.4%
same,"viability, T/C","second compound 3.16 µM, first compound 0.0949 µM",36.4%
same,"viability, T/C","second compound 3.16 µM, first compound 0.3 µM",16.4%
same,"viability, T/C","second compound 3.16 µM, first compound 0.949 µM",14.8%
same,"viability, T/C","second compound 3.16 µM, first compound 3 µM",7.66%
same,"viability, T/C","second compound 10 µM, first compound 0.00949 µM",43.4%
same,"viability, T/C","second compound 10 µM, first compound 0.03 µM",28.7%
same,"viability, T/C","second compound 10 µM, first compound 0.0949 µM",26.7%
same,"viability, T/C","second compound 10 µM, first compound 0.3 µM",21.5%
same,"viability, T/C","second compound 10 µM, first compound 0.949 µM",11.9%
same,"viability, T/C","second compound 10 µM, first compound 3 µM",8.12%
